Assays:
[1] = test system: Rattus norvegicus; assay: Anti-inflammatory activity in rat model of acute inflammation assessed as inhibition of carrageenan-induced paw oedema dosed at equimolar oral dose relative to 10 mg/kg, po indomethacin dosed 1 hr before carrageenan injection and measured 3 hrs after carrageenan injection; type: functional
[2] = test system: Rattus norvegicus; assay: Toxicity in healthy albino rat assessed as induction of tremors up to 500 mg/kg, po; type: organism-based; details: in vivo
[3] = test system: Rattus norvegicus; assay: Renal toxicity in rat Freund's adjuvant induced arthritis model of chronic inflammation assessed as assessed as total albumin level at equimolar oral dose relative to 10 mg/kg, po indomethacin dosed after 14 days from day of adjuvant injection until day 21 and measured on day 21 (reference value: 1.77 +/- 0.12 g/dL); type: organism-based; details: in vivo, 336 h
[4] = test system: Rattus norvegicus; assay: Anti-inflammatory activity in rat Freund's adjuvant induced arthritis model of chronic inflammation assessed as inhibition of right hind paw swelling at equimolar oral dose relative to 10 mg/kg, po indomethacin dosed after 14 days from day of adjuvant injection until day 21 and measured on day 6; type: functional
[5] = test system: Rattus norvegicus; assay: Renal toxicity in rat Freund's adjuvant induced arthritis model of chronic inflammation assessed as assessed as total protein level at equimolar oral dose relative to 10 mg/kg, po indomethacin dosed after 14 days from day of adjuvant injection until day 21 and measured on day 21 (reference value: 1.78 +/- 0.11 g/dL); type: organism-based; details: in vivo, 336 h
[6] = test system: Rattus norvegicus; assay: Anti-inflammatory activity in rat model of acute inflammation assessed as inhibition of carrageenan-induced paw oedema dosed at equimolar oral dose relative to 10 mg/kg, po indomethacin dosed 1 hr before carrageenan injection and measured 6 hrs after carrageenan injection; type: functional
[7] = test system: Rattus norvegicus; assay: Anti-inflammatory activity in rat Freund's adjuvant induced arthritis model of chronic inflammation assessed as inhibition of right hind paw swelling at equimolar oral dose relative to 10 mg/kg, po indomethacin dosed after 14 days from day of adjuvant injection until day 21 and measured on day 3; type: functional
[8] = test system: Rattus norvegicus; assay: Anti-inflammatory activity in rat Freund's adjuvant induced arthritis model of chronic inflammation assessed as inhibition of right hind paw swelling at equimolar oral dose relative to 10 mg/kg, po indomethacin dosed after 14 days from day of adjuvant injection until day 21 and measured on day 15; type: functional
[9] = test system: Rattus norvegicus; assay: Toxicity in healthy albino rat assessed as induction of salivation up to 500 mg/kg, po; type: organism-based; details: in vivo
[10] = test system: Rattus norvegicus; assay: Anti-inflammatory activity in rat model of acute inflammation assessed as inhibition of carrageenan-induced paw oedema dosed at equimolar oral dose relative to 10 mg/kg, po indomethacin dosed 1 hr before carrageenan injection and measured 5 hrs after carrageenan injection; type: functional
[11] = test system: Rattus norvegicus; assay: Toxicity in healthy albino rat assessed as induction of diarrhoea up to 500 mg/kg, po; type: organism-based; details: in vivo
[12] = test system: Rattus norvegicus; assay: Toxicity in healthy albino rat assessed as induction of mortality at 500 mg/kg, po measured after 14 days; type: organism-based; details: in vivo, 336 h
[13] = test system: Rattus norvegicus; assay: Anti-inflammatory activity in rat Freund's adjuvant induced arthritis model of chronic inflammation assessed as inhibition of right hind paw swelling at equimolar oral dose relative to 10 mg/kg, po indomethacin dosed after 14 days from day of adjuvant injection until day 21 and measured on day 12; type: functional
[14] = test system: Rattus norvegicus; assay: Anti-inflammatory activity in rat model of acute inflammation assessed as inhibition of carrageenan-induced paw oedema dosed at equimolar oral dose relative to 10 mg/kg, po indomethacin dosed 1 hr before carrageenan injection and measured 4 hrs after carrageenan injection; type: functional
[15] = test system: Rattus norvegicus; assay: Anti-inflammatory activity in rat model of sub-chronic inflammation assessed as inhibition of cotton pellet-induced granuloma by measuring weight of granulation dosed once daily at equimolar oral dose relative to 10 mg/kg, po indomethacin for seven consecutive days from day of cotton pellet insertion (94.13 +/- 8.1 mg); type: functional
[16] = test system: Rattus norvegicus; assay: Hepato-toxicity in rat Freund's adjuvant induced arthritis model of chronic inflammation assessed as assessed as alkaline phosphatase level at equimolar oral dose relative to 10 mg/kg, po indomethacin dosed after 14 days from day of adjuvant injection until day 21 and measured on day 21 (reference value: 17.82 +/- 1.2 U); type: organism-based; details: in vivo, 336 h
[17] = test system: Rattus norvegicus; assay: Renal toxicity in rat Freund's adjuvant induced arthritis model of chronic inflammation assessed as assessed as blood urea nitrogen level at equimolar oral dose relative to 10 mg/kg, po indomethacin dosed after 14 days from day of adjuvant injection until day 21 and measured on day 21 (reference value: 23.48 +/- 1.8 mg/dL); type: organism-based; details: in vivo, 336 h
[18] = test system: Rattus norvegicus; assay: Anti-inflammatory activity in rat model of acute inflammation assessed as inhibition of carrageenan-induced paw oedema dosed at equimolar oral dose relative to 10 mg/kg, po indomethacin dosed 1 hr before carrageenan injection and measured 2 hrs after carrageenan injection; type: functional
[19] = test system: Mus musculus; assay: Analgesic activity in Swiss albino mouse assessed as reduction in formalin-induced paw licking by measuring time spent on licking during phase-1 at equimolar oral dose relative to 10 mg/kg, po indomethacin dosed 1 hr before formalin challenge and measured 30 mins after formalin injection; type: functional
[20] = test system: Rattus norvegicus; assay: Anti-inflammatory activity in rat model of acute inflammation assessed as inhibition of carrageenan-induced paw oedema dosed at equimolar oral dose relative to 10 mg/kg, po indomethacin dosed 1 hr before carrageenan injection and measured 5 hrs after carrageenan injection relative to 10 mg/kg, po indomethacin; type: functional
[21] = test system: Rattus norvegicus; assay: Anti-inflammatory activity in rat assessed as inhibition of arachidonic acid-induced paw edema dosed at equimolar oral dose relative to 10 mg/kg, po indomethacin dosed 30 mins before arachidonic acid injection and measured 1 hr after arachidonic acid injection; type: functional
[22] = test system: Rattus norvegicus; assay: Toxicity in healthy albino rat assessed as induction of changes in autonomic or behavioural responses up to 500 mg/kg, po; type: organism-based; details: in vivo
[23] = test system: Rattus norvegicus; assay: Hepato-toxicity in rat Freund's adjuvant induced arthritis model of chronic inflammation assessed as assessed as SGPT level at equimolar oral dose relative to 10 mg/kg, po indomethacin dosed after 14 days from day of adjuvant injection until day 21 and measured on day 21 (reference value: 34.23 +/- 2.5 U/mL); type: organism-based; details: in vivo, 336 h
[24] = test system: Mus musculus; assay: Analgesic activity in Swiss albino mouse assessed as reduction in number of writhing episodes at equimolar oral dose relative to 10 mg/kg, po indomethacin measured 30 mins following acetic acid injection; type: functional
[25] = test system: Rattus norvegicus; assay: Toxicity in healthy albino rat assessed as induction of convulsion up to 500 mg/kg, po; type: organism-based; details: in vivo
[26] = In-vitro anti-inflammatory activity assessed as inhibition of denaturation of bovine serum albumin at equimolar dose relative to 10 mg indomethacin; type: functional

## Nc1ccc(-c2nnc(Cn3nc(-c4ccccc4)c(-c4ccccc4)nc3=O)o2)cc1
[1]
  inhibition (INH): 51.89%
[2]
  Activity: Non-toxic
[3]
  Activity: 1.87 g/dL
[4]
  inhibition (INH): 36.5%
[5]
  Activity: 1.86 g/dL
[6]
  inhibition (INH): 55.96%
[7]
  inhibition (INH): 31.14%
[8]
  inhibition (INH): 47.9%
[9]
  Activity: Non-toxic
[10]
  inhibition (INH): 58.83%
[11]
  Activity: Non-toxic
[12]
  Activity: Non-toxic
[13]
  inhibition (INH): 45.8%
[14]
  inhibition (INH): 56.96%
[15]
  Activity: 56.29 mg
[16]
  Activity: 20.64 U
[17]
  Activity: 33.85 mg/dL
[18]
  inhibition (INH): 41.76%
[19]
  inhibition (INH): 12.45%
[20]
  inhibition (INH): 93.92%
[21]
  inhibition (INH): 16.45%
[22]
  Activity: Non-toxic
[23]
  Activity: 39.11 U/ml
[24]
  inhibition (INH): 71.85%
[25]
  Activity: Non-toxic
[26]
  inhibition: 80.3%

## O=c1nc(-c2ccccc2)c(-c2ccccc2)nn1Cc1nnc(-c2ccc(Cl)cc2)o1
[1]
  inhibition (INH): 51.32%
[2]
  Activity: Non-toxic
[3]
  Activity: 1.8 g/dL
[4]
  inhibition (INH): 35.28%
[5]
  Activity: 1.91 g/dL
[6]
  inhibition (INH): 55.47%
[7]
  inhibition (INH): 30.02%
[8]
  inhibition (INH): 45.86%
[9]
  Activity: Non-toxic
[10]
  inhibition (INH): 57.64%
[11]
  Activity: Non-toxic
[12]
  Activity: Non-toxic
[13]
  inhibition (INH): 43.36%
[14]
  inhibition (INH): 54.99%
[15]
  Activity: 57.8 mg
[16]
  Activity: 20.28 U
[17]
  Activity: 42.28 mg/dL
[18]
  inhibition (INH): 39.28%
[19]
  inhibition (INH): 12.11%
[20]
  inhibition (INH): 92.02%
[21]
  inhibition (INH): 17.58%
[22]
  Activity: Non-toxic
[23]
  Activity: 42.45 U/ml
[24]
  inhibition (INH): 73.26%
[25]
  Activity: Non-toxic
[26]
  inhibition: 78.2%

## O=c1nc(-c2ccccc2)c(-c2ccccc2)nn1Cc1nnc(-c2ccc(O)cc2O)o1
[1]
  inhibition (INH): 53.27%
[2]
  Activity: Non-toxic
[3]
  Activity: 1.82 g/dL
[4]
  inhibition (INH): 37.61%
[5]
  Activity: 1.88 g/dL
[6]
  inhibition (INH): 57.56%
[7]
  inhibition (INH): 31.26%
[8]
  inhibition (INH): 49.82%
[9]
  Activity: Non-toxic
[10]
  inhibition (INH): 59.07%
[11]
  Activity: Non-toxic
[12]
  Activity: Non-toxic
[13]
  inhibition (INH): 43.97%
[14]
  inhibition (INH): 59.74%
[15]
  Activity: 56.11 mg
[16]
  Activity: 19.56 U
[17]
  Activity: 38.67 mg/dL
[18]
  inhibition (INH): 44.47%
[19]
  inhibition (INH): 10.73%
[20]
  inhibition (INH): 94.3%
[21]
  inhibition (INH): 19.19%
[22]
  Activity: Non-toxic
[23]
  Activity: 39.67 U/ml
[24]
  inhibition (INH): 72.4%
[25]
  Activity: Non-toxic
[26]
  inhibition: 80.8%

## O=c1nc(-c2ccccc2)c(-c2ccccc2)nn1Cc1nnc(-c2ccc([N+](=O)[O-])cc2)o1
[1]
  inhibition (INH): 49.6%
[2]
  Activity: Non-toxic
[3]
  Activity: 1.83 g/dL
[4]
  inhibition (INH): 36.13%
[5]
  Activity: 1.84 g/dL
[6]
  inhibition (INH): 52.27%
[7]
  inhibition (INH): 32.01%
[8]
  inhibition (INH): 43.82%
[9]
  Activity: Non-toxic
[10]
  inhibition (INH): 55.96%
[11]
  Activity: Non-toxic
[12]
  Activity: Non-toxic
[13]
  inhibition (INH): 41.78%
[14]
  inhibition (INH): 54.76%
[15]
  Activity: 58.07 mg
[16]
  Activity: 19.92 U
[17]
  Activity: 39.24 mg/dL
[18]
  inhibition (INH): 41.42%
[19]
  inhibition (INH): 13.68%
[20]
  inhibition (INH): 89.33%
[21]
  inhibition (INH): 12.26%
[22]
  Activity: Non-toxic
[23]
  Activity: 45.28 U/ml
[24]
  inhibition (INH): 74.84%
[25]
  Activity: Non-toxic
[26]
  inhibition: 78.4%

## COc1ccc(-c2nnc(Cn3nc(-c4ccccc4)c(-c4ccccc4)nc3=O)o2)cc1
[1]
  inhibition (INH): 48.11%
[2]
  Activity: Non-toxic
[3]
  Activity: 1.87 g/dL
[4]
  inhibition (INH): 35.14%
[5]
  Activity: 1.81 g/dL
[6]
  inhibition (INH): 52.71%
[7]
  inhibition (INH): 30.02%
[8]
  inhibition (INH): 43.46%
[9]
  Activity: Non-toxic
[10]
  inhibition (INH): 55.25%
[11]
  Activity: Non-toxic
[12]
  Activity: Non-toxic
[13]
  inhibition (INH): 41.05%
[14]
  inhibition (INH): 52.67%
[15]
  Activity: 58.51 mg
[16]
  Activity: 22.11 U
[17]
  Activity: 40.62 mg/dL
[18]
  inhibition (INH): 38.71%
[19]
  inhibition (INH): 10.59%
[20]
  inhibition (INH): 88.2%
[21]
  inhibition (INH): 13.71%
[22]
  Activity: Non-toxic
[23]
  Activity: 41.31 U/ml
[24]
  inhibition (INH): 70.21%
[25]
  Activity: Non-toxic
[26]
  inhibition: 76.7%
